Consider one compound from ChEMBL document CHEMBL5726478, “Histone demethylase inhibitors” (2019).

The assay addresses T1, Lysine-specific demethylase 4C (Homo sapiens, UniProt Q9H3R0).
T1 sequence (Q9H3R0 whole entry): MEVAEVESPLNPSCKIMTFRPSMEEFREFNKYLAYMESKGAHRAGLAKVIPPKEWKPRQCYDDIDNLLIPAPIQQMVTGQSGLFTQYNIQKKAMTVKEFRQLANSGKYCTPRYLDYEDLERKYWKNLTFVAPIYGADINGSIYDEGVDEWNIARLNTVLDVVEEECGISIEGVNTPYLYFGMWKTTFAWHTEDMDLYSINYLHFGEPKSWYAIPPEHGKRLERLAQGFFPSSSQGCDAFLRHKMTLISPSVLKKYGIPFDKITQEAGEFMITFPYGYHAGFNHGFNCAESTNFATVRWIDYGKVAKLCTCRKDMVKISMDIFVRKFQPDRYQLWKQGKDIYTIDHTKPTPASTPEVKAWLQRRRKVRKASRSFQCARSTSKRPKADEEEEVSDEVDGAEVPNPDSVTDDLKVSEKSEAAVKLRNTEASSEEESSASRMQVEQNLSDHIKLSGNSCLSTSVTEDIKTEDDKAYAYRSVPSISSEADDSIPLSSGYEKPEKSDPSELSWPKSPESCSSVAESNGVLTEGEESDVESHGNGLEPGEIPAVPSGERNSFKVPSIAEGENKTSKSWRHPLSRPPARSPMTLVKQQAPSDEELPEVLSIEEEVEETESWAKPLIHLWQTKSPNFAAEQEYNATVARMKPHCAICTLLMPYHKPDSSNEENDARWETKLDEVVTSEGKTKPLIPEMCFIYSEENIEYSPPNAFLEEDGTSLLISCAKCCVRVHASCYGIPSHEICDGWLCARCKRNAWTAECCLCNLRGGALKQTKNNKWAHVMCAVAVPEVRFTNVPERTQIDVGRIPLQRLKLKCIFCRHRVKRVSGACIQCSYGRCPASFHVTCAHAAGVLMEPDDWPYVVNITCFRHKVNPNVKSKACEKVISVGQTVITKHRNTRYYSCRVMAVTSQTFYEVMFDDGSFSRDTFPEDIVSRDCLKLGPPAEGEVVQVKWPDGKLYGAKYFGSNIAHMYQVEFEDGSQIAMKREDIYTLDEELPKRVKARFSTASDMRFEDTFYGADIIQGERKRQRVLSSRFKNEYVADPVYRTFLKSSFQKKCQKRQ
The assay is described as follows: JMJD2C Assay: The ability of test compounds to inhibit the activity of JMJD2C was determined in 384-well plate-format under the following reaction conditions: 0.3 nM JMJD2C, 300 nM H3K9me3-biotin labeled peptide (Anaspec cat #64360), 2 μM alpha-ketoglutaric acid in assay buffer of 50 mM HEPES, pH 7.3, 0.005% Brij35, 0.5 mM TCEP, 0.2 mg/ml BSA, 50 μM sodium L-ascorbate, and 2 μM ammonium iron(II) sulfate. Reaction product was determined quantitatively by TR-FRET after the addition of detection reagent Phycolink Streptavidin-allophycocyanin (Prozyme) and Europium-anti-di-methylated histone H3 lysine 9 (H3K9me2) antibody (PerkinElmer) in the presence of 5 mM EDTA in LANCE detection buffer (PerkinElmer) at a final concentration of 50 nM and 1 nM, respectively.The assay reaction was initiated by the following: 2 μl of the mixture of 900 nM H3K9me3-biotin labeled peptide and 6 μM alpha-ketoglutaric acid with 2 μl of 11-point serial diluted inhibitor in 3% DMSO were added to each well of the plate, followed by the addition of 2 μl of 0.9 nM JMJD2C to initiate the reaction. The reaction mixture was incubated at room temperature for 30 min, and terminated by the addition of 6 μl of 5 mM EDTA in LANCE detection buffer containing 100 nM Phycolink Streptavidin-allophycocyanin and 2 nM Europium-anti-H3K9me2 antibody. […].

Structures are written as SMILES.

As a reminder, the IC50 is the concentration needed to halve the response being measured. Take `CC(C)N1CCN(c2cccc(N(C)c3ccc(Oc4nc(O)c5ccncc5n4)cc3)c2)CC1`: the IC50 was less than 100 nM.
